Results reported in PubChem BioAssay (NCI).
Values joined by “and” are separate entries in the source; they are usually repeats but may differ in a detail not shown here. Equal entries are not always repeated.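 Cultured in 96-well plates, cells were exposed to test compound for 48 hours across five concentrations. At the GI50, growth is halved. TGI denotes the concentration required for complete inhibition of growth.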

Legend:
Test in all cases: NCI tumour cell line growth inhibition, 48 h
786-0 renal = system: 786-0 renal
HCC-2998 colon = system: HCC-2998 colon
HCT-15 colon = system: HCT-15 colon
K-562 leukemia = system: K-562 leukemia
NCI-H522 lung = system: NCI-H522 lung
OVCAR-3 ovarian = system: OVCAR-3 ovarian
RXF 393 renal = system: RXF 393 renal
SF-268 CNS = system: SF-268 CNS
UACC-257 melanoma = system: UACC-257 melanoma
UACC-62 melanoma = system: UACC-62 melanoma

Row | SMILES | GI50 (786-0 renal) | TGI (786-0 renal) | GI50 (HCC-2998 colon) | TGI (HCC-2998 colon) | GI50 (HCT-15 colon) | TGI (HCT-15 colon) | GI50 (K-562 leukemia) | TGI (K-562 leukemia) | GI50 (NCI-H522 lung) | TGI (NCI-H522 lung) | GI50 (OVCAR-3 ovarian) | TGI (OVCAR-3 ovarian) | GI50 (RXF 393 renal) | TGI (RXF 393 renal) | GI50 (SF-268 CNS) | TGI (SF-268 CNS) | GI50 (UACC-257 melanoma) | TGI (UACC-257 melanoma) | GI50 (UACC-62 melanoma) | TGI (UACC-62 melanoma)
1 | CCOC(=O)/C=C/C(C(=O)/C=C/c1ccc(OC2CCCCO2)c(OC)c1)=C(O)\C=C\c1ccc(OC2CCCCO2)c(OC)c1 (stereo not given) | 4.96 µM | 20.3 µM | 9.53 µM | 21.6 µM | 3.59 µM | 12.6 µM | 2.62 µM | 75 µM | 2.22 µM | 6.68 µM | 2.58 µM | 8.47 µM | 2.21 µM | 5.68 µM | 4.88 µM | > 100 µM | 19.8 µM | 78.4 µM | 3.02 µM | 12.8 µM
2 | Oc1ccc(Cl)cc1Cc1cc(Cl)cc(Cl)c1O | 8.98 µM | 30.1 µM | 6.52 µM | 18.9 µM | 4.18 µM | 23.5 µM | 4.52 µM | 28.4 µM | 3.43 µM | 13.2 µM | 2.83 µM | 16.5 µM | 2.54 µM | 8.54 µM | 3.82 µM | 57.9 µM | 5.01 µM | 32.5 µM | 4.55 µM | 18.8 µM
3 | COc1ccc(C(=O)c2cc(OC)c(C)c(OC)c2)cc1OC(=O)CCl | 3.65 µM | > 79.5 µM | 0.633 µM | 19.3 µM | 0.0697 µM | 27.2 µM | 0.0538 µM | > 100 µM | 0.21 µM | 14.1 µM | 0.336 µM | 10.8 µM | 0.33 µM | 32.5 µM | 1.33 µM | > 100 µM | 14 µM | > 95.8 µM | 1.61 µM | 22.4 µM
4 | CC(O)C(N=Cc1ccccc1[O-])C(=O)[O-].CC(O)C(N=Cc1ccccc1[O-])C(=O)[O-].[Co+2] (stereo not given) | > 100 µM | > 100 µM | 59.8 µM | > 100 µM | > 100 µM | > 100 µM | 98.4 µM | > 100 µM | > 100 µM | > 100 µM | > 100 µM | > 100 µM | > 100 µM | > 100 µM | 29.9 µM | > 100 µM | > 100 µM | > 100 µM | 65.8 µM | > 100 µM
5 | CC1=Nc2ccccc2C1C(Cc1ccccc1N)c1c(C)[nH]c2ccccc12 (stereo not given) |  | 28.6 µM |  | 30.2 µM |  | 51 µM |  | 43.2 µM |  | 31.6 µM |  | 31.4 µM |  | 35.1 µM |  | 21.5 µM |  | 32.4 µM |  | 26.3 µM
6 | O=c1n(CC2CO2)c(=O)n(CC2CO2)c(=O)n1CC1CO1 (stereo not given) | 8.38 µM and 4.15 µM | 24.2 µM and 84.8 µM and > 100 µM | 11.4 µM and 21.2 µM | 27 µM and 108 µM and > 100 µM | 13.1 µM and 25.7 µM and 11.9 µM | 78.3 µM and 90.6 µM and > 100 µM | 40.3 µM and 26.5 µM | 308 µM and > 100 µM | 11.2 µM and 3.9 µM | 28 µM and 45.8 µM and 22.9 µM | 20.6 µM and 13.1 µM | 108 µM and 40.2 µM | 4.01 µM | 109 µM and 23.8 µM | 11.7 µM and 3.66 µM | 241 µM and > 100 µM | 15.4 µM | 38.4 µM and 109 µM | 5.58 µM | 41.9 µM and 75.5 µM
7 | CC1OC(n2cc(F)c(=O)[nH]c2=O)C=CC1O (stereo not given) |  | > 100 µM |  | > 100 µM |  | > 100 µM |  | > 100 µM |  | > 100 µM |  | > 100 µM |  | > 100 µM |  | > 100 µM |  | > 100 µM |  | > 100 µM
8 | COc1ccc2c(c1)CCC1C2CC[C@@]2(C)C1CC1=CC(COC(C)=O)C3C(=O)c4ccccc4C(=O)C3C12 (stereo not given in full) | > 100 µM | > 100 µM | > 100 µM | > 100 µM | > 100 µM | > 100 µM | 64.1 µM | > 100 µM | > 100 µM | > 100 µM | > 100 µM | > 100 µM | 59.8 µM | > 100 µM | > 100 µM | > 100 µM | > 100 µM | > 100 µM | 47.3 µM | > 100 µM
9 | O=C(c1ccccc1)c1cc(Cl)ccc1OCCCCN1CCN(CCCCOc2ccc(Cl)cc2C(=O)c2ccccc2)CC1 | 1.96 µM | 3.7 µM | 2.13 µM | 4.05 µM | 2.1 µM | 4.27 µM | 1.9 µM | 4.87 µM | 2.09 µM | 3.83 µM | 2.36 µM | 5.78 µM | 2.53 µM | 5.08 µM | 7.03 µM | 23.8 µM | 3.07 µM | 7.57 µM | 9.87 µM | 21.9 µM
10 | CNCCNc1c2c(c(NCCNC)c3c(CN(C)C)c[nH]c13)C(=O)c1ccccc1C2=O | 4.87 µM | 19.5 µM | 1.36 µM | 5.37 µM | 5.7 µM | 20.5 µM | 1.81 µM | > 100 µM | 0.514 µM | 3.59 µM | 1.03 µM | 6.8 µM | 2.5 µM | 11 µM | 1.3 µM | 9.21 µM | 20.1 µM | 45.7 µM | 2.78 µM | 19.7 µM
